ChEMBL document CHEMBL5661983, “The selective anaplastic lymphoma receptor tyrosine kinase inhibitor ASP3026 induces tumor regression and prolongs survival in non-small cell lung cancer model mice” (Mol Cancer Ther, 2014)
Activity calls are given as the source filed them. The calls are words filed in the database; no cut-off is given here.

Key:
[1] = target: T1, ALK tyrosine kinase receptor (Homo sapiens, UniProt Q9UM73); test: Inhibition of ALK in human NCI-H2228 cells assessed as reduction in AKT phosphorylation by measuring phosphorylated AKT level at 1000 nmol/L measured after 4 hrs by Western blot analysis relative to control; format: cell-based; set-up: scale not given: the % may be the effect or the level left
T1 sequence (Q9UM73 19-1620 limits assumed): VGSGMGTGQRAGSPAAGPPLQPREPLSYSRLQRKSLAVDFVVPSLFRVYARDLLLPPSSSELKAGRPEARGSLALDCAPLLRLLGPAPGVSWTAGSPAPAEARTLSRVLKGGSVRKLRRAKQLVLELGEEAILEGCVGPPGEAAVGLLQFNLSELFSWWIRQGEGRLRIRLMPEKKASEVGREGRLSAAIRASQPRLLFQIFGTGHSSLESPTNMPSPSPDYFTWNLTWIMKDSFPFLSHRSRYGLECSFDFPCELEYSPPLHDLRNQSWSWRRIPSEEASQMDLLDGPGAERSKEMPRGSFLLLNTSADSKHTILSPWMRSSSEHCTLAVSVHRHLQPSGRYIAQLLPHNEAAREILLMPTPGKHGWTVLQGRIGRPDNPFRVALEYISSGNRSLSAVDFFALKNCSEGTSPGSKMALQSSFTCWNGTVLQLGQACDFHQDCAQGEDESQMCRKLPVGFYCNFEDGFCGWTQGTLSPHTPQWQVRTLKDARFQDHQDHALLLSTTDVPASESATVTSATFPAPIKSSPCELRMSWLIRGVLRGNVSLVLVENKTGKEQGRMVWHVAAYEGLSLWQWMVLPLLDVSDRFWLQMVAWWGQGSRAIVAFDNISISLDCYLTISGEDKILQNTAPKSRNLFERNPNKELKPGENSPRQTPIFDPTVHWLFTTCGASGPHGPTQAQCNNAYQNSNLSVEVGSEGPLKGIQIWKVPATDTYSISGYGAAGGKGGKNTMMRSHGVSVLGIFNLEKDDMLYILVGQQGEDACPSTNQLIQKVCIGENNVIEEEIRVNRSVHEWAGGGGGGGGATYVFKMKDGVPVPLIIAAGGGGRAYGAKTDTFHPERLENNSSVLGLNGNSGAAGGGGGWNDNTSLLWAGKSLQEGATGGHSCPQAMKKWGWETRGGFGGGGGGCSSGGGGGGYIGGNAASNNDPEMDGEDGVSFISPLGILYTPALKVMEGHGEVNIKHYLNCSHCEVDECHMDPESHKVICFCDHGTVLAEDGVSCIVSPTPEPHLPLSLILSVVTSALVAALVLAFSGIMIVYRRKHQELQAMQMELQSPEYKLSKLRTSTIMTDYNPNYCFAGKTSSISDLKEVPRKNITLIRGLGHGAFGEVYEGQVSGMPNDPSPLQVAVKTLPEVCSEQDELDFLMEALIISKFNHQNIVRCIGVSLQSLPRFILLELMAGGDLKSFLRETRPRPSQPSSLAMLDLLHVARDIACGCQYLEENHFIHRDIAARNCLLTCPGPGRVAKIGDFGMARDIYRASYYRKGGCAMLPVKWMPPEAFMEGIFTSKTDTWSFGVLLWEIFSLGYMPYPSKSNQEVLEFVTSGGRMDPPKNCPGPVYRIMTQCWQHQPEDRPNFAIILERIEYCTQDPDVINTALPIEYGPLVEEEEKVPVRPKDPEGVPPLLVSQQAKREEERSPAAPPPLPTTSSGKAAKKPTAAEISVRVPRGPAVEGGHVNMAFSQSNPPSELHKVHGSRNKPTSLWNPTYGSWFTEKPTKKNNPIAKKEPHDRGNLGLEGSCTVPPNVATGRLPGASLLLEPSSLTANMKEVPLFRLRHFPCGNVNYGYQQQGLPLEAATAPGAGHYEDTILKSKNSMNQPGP

NCI-H2228 [2] = test: Antitumor activity against human NCI-H2228 cells xenografted in NOD.CB17-Prkdcscid/J mouse assessed as tumor regression at 1 mg/kg, po administered once daily for 2 weeks relative to control; format: functional
[3] = Tmax in human NCI-H2228 cell xenografted NOD.CB17-Prkdcscid/J mouse plasma at 1 mg/kg/day for 5 days by HPLC-MS analysis; format: ADME, organism-based; conditions: route po, time 5 day
NCI-H2228 [4] = test: Antitumor activity against human NCI-H2228 cells xenografted in NOD.CB17-Prkdcscid/J mouse assessed as tumor growth inhibition at 3 mg/kg, po administered once daily for 2 weeks relative to control; format: functional; conditions: NCI-H2228, 336 h, read-out: TGI
[5] = target: Tyrosine-protein kinase receptor TYRO3 (Homo sapiens, UniProt Q06418)
Sequence of Tyrosine-protein kinase receptor TYRO3 (Q06418 whole entry): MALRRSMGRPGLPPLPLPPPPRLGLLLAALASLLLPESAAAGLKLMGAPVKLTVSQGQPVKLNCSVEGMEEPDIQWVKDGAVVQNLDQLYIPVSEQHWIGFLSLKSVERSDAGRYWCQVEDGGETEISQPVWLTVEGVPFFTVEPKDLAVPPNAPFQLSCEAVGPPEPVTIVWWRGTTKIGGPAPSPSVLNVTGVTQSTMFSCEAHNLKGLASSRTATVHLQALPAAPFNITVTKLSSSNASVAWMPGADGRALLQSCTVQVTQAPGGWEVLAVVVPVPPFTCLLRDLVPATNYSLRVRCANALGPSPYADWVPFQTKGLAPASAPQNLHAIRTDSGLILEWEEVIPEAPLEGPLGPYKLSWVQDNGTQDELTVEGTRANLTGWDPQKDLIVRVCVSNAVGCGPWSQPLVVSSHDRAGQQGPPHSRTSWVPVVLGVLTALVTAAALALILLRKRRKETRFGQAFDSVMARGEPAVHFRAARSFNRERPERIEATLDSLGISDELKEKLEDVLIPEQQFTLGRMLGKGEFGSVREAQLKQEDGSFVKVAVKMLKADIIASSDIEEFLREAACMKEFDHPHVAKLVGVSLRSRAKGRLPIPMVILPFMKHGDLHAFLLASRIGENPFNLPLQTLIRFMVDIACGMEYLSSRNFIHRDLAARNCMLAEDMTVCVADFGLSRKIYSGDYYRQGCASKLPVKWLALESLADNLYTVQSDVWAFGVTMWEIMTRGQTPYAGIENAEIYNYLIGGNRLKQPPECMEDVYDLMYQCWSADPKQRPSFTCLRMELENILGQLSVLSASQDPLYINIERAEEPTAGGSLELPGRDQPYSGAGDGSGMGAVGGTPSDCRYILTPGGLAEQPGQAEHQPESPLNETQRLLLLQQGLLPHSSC

EML4-ALK = EML4-ALK (Homo sapiens, UniProt Q9UM73, L1196M); format: cell-based, BaF3
Sequence of EML4-ALK (Q9UM73 19-1620 L1196M limits assumed): as the sequence (Q9UM73 19-1620 limits assumed) above, with L1178M counted along it

NCI-H2228 [6] = test: Potentiation of pemetrexed-induced antitumor activity against human NCI-H2228 cells xenografted in NOD.CB17-Prkdcscid/J mouse assessed as reduction in tumor volume at 10 mg/kg, po administered once daily for 5 days; format: functional, organism-based; conditions: time 5.0 day
NCI-H2228 [7] = test: Antiproliferative activity against human NCI-H2228 cell spheroids assessed as reduction in cell growth measured after 5 days by celltiter-glo luminescent cell viability assay; format: functional, cell-based; conditions: NCI-H2228, 120 h
[8] = AUC (0 to 24 hrs) in human NCI-H2228 cell xenografted NOD.CB17-Prkdcscid/J mouse plasma at 3 mg/kg/day for 5 days by HPLC-MS analysis; format: ADME, organism-based; conditions: route po, time 5 day
NCI-H2228-Luc [9] = test: Antitumor activity against human NCI-H2228-Luc cells intrapleurally xenografted in NOD.CB17-Prkdcscid/J mouse assessed as median survival time at 3 mg/kg, po administered once daily for 7 weeks starting from 14 days post-cell inoculation measured up to 90 days (reference value: 39 day); format: functional; conditions: time 90 day
[10] = target: T1, ALK tyrosine kinase receptor; test: Inhibition of ALK in human NCI-H2228 cells assessed as reduction in ERK phosphorylation by measuring phosphorylated ERK level at 1000 nmol/L measured after 4 hrs by Western blot analysis relative to control; format: cell-based; set-up: scale not given: the % may be the effect or the level left
[11] = Cmax in human NCI-H2228 cell xenografted NOD.CB17-Prkdcscid/J mouse plasma at 3 mg/kg/day for 5 days by HPLC-MS analysis; format: ADME, organism-based; conditions: route po, time 5 day
[12] = target: Tyrosine-protein kinase JAK2 (Homo sapiens, UniProt O60674)
Sequence of Tyrosine-protein kinase JAK2 (O60674 whole entry): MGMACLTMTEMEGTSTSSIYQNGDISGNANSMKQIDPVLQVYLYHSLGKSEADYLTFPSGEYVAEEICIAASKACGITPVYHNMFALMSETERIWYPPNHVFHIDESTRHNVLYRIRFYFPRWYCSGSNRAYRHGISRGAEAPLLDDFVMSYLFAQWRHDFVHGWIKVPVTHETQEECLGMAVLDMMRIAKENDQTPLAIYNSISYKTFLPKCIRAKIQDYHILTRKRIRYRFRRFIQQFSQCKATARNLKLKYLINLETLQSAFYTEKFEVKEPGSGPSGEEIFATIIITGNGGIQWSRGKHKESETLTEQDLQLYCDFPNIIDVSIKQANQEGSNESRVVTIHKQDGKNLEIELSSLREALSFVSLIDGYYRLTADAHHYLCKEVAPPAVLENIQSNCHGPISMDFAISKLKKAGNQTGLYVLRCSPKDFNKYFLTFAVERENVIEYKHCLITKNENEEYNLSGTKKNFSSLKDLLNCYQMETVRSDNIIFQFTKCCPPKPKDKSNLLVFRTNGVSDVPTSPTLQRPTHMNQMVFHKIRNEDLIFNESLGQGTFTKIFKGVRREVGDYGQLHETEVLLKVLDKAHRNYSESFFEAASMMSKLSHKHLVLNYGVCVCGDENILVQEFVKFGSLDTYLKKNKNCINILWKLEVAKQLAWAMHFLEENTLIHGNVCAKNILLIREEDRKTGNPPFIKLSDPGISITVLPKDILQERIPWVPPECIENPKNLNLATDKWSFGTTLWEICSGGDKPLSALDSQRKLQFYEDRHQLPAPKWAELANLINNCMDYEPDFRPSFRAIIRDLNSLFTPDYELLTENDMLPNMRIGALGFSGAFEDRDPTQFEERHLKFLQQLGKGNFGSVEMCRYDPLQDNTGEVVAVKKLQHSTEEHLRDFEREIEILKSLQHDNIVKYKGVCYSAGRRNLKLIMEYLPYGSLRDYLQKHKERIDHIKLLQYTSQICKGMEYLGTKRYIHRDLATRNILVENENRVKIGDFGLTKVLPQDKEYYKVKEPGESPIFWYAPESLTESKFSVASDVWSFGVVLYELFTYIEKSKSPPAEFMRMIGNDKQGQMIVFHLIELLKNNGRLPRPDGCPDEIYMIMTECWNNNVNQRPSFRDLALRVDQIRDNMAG

[13] = Ratio of Cmax in human NCI-H2228 cell xenografted NOD.CB17-Prkdcscid/J mouse tumor to plasma at 3 mg/kg/day for 5 days by HPLC-MS analysis; format: ADME, organism-based; conditions: tumor and plasma, route po, time 5 day
[14] = AUC (0 to 24 hrs) in human NCI-H2228 cell xenografted NOD.CB17-Prkdcscid/J mouse tumor at 10 mg/kg/day for 5 days by HPLC-MS analysis; format: ADME, organism-based, Neoplasm; conditions: in vivo, po, 120 h, time 5 day
[15] = Tmax in human NCI-H2228 cell xenografted NOD.CB17-Prkdcscid/J mouse plasma at 3 mg/kg/day for 5 days by HPLC-MS analysis; format: ADME, organism-based; conditions: route po, time 5 day
NCI-H2228 [16] = test: Antitumor activity against human NCI-H2228 cells xenografted in NOD.CB17-Prkdcscid/J mouse assessed as tumor regression at 30 mg/kg, po administered once daily for 2 weeks relative to control; format: functional
[17] = Toxicity in human NCI-H2228 cell xenografted NOD.CB17-Prkdcscid/J mouse assessed as change in body weight at 100 mg/kg, po administered twice daily for 14 days; format: organism-based; conditions: in vivo, 336 h, time 14 day
in vivo [18] = conditions: NOD.CB17-Prkdcscid/J, mouse, tumour, po, 10 mg/kg
[19] = Tmax in human NCI-H2228 cell xenografted NOD.CB17-Prkdcscid/J mouse plasma at 10 mg/kg/day for 5 days by HPLC-MS analysis; format: ADME, organism-based; conditions: route po, time 5 day
[20] = AUC (0 to 24 hrs) in human NCI-H2228 cell xenografted NOD.CB17-Prkdcscid/J mouse tumor at 1 mg/kg/day for 5 days by HPLC-MS analysis; format: ADME, organism-based, Neoplasm; conditions: in vivo, po, 120 h, time 5 day
NCI-H2228-Luc [21] = test: Antitumor activity against human NCI-H2228-Luc cells intrahepatically xenografted in NOD.CB17-Prkdcscid/J mouse assessed as reduction in tumor burden by measuring bioluminescence emission at 30 mg/kg, po administered once daily for 3 weeks starting from 14 days post-cell inoculation and measured on day 19 by bioluminescent imaging analysis (reference value: 3.3 x 10^8 photon/sec); format: functional; conditions: time 19 day
in vivo [22] = conditions: NOD.CB17-Prkdcscid/J, mouse, tumour, po, 3 mg/kg
[23] = Ratio of Cmax in human NCI-H2228 cell xenografted NOD.CB17-Prkdcscid/J mouse tumor to plasma at 10 mg/kg/day for 5 days by HPLC-MS analysis; format: ADME, organism-based; conditions: tumor and plasma, route po, time 5 day
[24] = target: T1, ALK tyrosine kinase receptor; test: Inhibition of ALK in human NCI-H2228 cells assessed as reduction in AKT phosphorylation by measuring phosphorylated AKT level at 10 nmol/L measured after 4 hrs by Western blot analysis relative to control; format: cell-based; set-up: scale not given: the % may be the effect or the level left
[25] = Ratio of drug level in tumor to plasma of hEML4-ALK transgenic C57BL/6J mouse at 10 to 100 mg/kg, po administered daily for 10 days and measured 24 hrs post-last dose; format: ADME, organism-based; conditions: dose 10-100 mg/kg, time 11 day
NCI-H2228-Luc [26] = test: Antitumor activity against human NCI-H2228-Luc cells intrahepatically xenografted in NOD.CB17-Prkdcscid/J mouse assessed as reduction in tumor burden by measuring bioluminescence emission at 30 mg/kg, po administered once daily for 3 weeks starting from 14 days post-cell inoculation and measured on day 14 by bioluminescent imaging analysis (reference value: 3.3 x 10^8 photon/sec); format: functional; conditions: time 14 day
NCI-H2228 [27] = test: Antitumor activity against human NCI-H2228 cells xenografted in NOD.CB17-Prkdcscid/J mouse assessed as tumor growth inhibition at 10 mg/kg, po administered once daily for 2 weeks relative to control; format: functional; conditions: NCI-H2228, 336 h, read-out: TGI
[28] = AUC (0 to 24 hrs) in human NCI-H2228 cell xenografted NOD.CB17-Prkdcscid/J mouse plasma at 10 mg/kg/day for 5 days by HPLC-MS analysis; format: ADME, organism-based; conditions: route po, time 5 day
[29] = target: Tyrosine-protein kinase Yes (Homo sapiens, UniProt P07947)
Sequence of Tyrosine-protein kinase Yes (P07947 whole entry): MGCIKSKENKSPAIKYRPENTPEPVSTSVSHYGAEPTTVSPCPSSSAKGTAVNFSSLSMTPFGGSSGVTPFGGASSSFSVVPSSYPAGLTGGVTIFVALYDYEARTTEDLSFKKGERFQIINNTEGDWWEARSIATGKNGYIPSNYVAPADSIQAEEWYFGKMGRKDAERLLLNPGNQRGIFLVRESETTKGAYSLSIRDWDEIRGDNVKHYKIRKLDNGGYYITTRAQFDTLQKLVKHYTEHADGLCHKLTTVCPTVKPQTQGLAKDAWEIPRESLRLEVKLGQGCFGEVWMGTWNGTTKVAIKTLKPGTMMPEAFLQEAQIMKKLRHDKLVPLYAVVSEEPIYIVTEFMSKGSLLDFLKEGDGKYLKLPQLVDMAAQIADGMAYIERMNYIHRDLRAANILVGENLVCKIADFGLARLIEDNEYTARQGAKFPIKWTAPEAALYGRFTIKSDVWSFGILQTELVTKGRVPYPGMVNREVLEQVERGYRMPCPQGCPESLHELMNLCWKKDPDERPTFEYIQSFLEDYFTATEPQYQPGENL

NCI-H2228 [30] = test: Antitumor activity against human NCI-H2228 cells xenografted in NOD.CB17-Prkdcscid/J mouse assessed as tumor regression at 3 mg/kg, po administered once daily for 2 weeks relative to control; format: functional

Molecule `COc1cc(N2CCC(N3CCN(C)CC3)CC2)ccc1Nc1ncnc(Nc2ccccc2S(=O)(=O)C(C)C)n1` [ASP-3026] has an Activity [1] of 20%, an Activity (NCI-H2228 [2]) of 0% and a Tmax [3] of 4 h. For the same molecule, the inhibition in vivo at 3 mg/kg (NCI-H2228 [4]) was > 100%, the IC50 [5] was > 1000 nM and the IC50 (EML4-ALK) was 32 nM. The Activity (NCI-H2228 [6]) was “Active”, the IC50 (NCI-H2228 [7]) was 64.8 nM and the AUC at 120 h [8] was 1820 ng·h/mL. It also gave an MST (NCI-H2228-Luc [9]) of 56.5 days, an Activity [10] of 36% and a Cmax [11] of 140 ng/mL. The IC50 [12] was > 1000 nM, the Kp at 120 h [13] was 16 and the AUC [14] was 121000 ng·h/g. For the same molecule, the Tmax [15] was 4 h, the Activity (NCI-H2228 [16]) was 78% and the Activity [17] was “Non-Toxic”. The Kp at 120 h (in vivo [18]) was 20, the Tmax [19] was 4 h and the AUC [20] was 13600 ng·h/g. The Activity (NCI-H2228-Luc [21]) was 7.7 10^6No_unit, the Kp at 120 h (in vivo [22]) was 19 and the Kp at 120 h [23] was 18. The Activity [24] was 120%, the Kp at 264 h [25] was > 100 and the Activity (NCI-H2228-Luc [26]) was 4.2 10^6No_unit. For the same molecule, the inhibition in vivo at 10 mg/kg (NCI-H2228 [27]) was > 100%, the AUC at 120 h [28] was 5990 ng·h/mL and the IC50 [29] was 31.5 nM. For the same molecule, the Activity (NCI-H2228 [30]) was 4%.
